Measurements published in patent publication US20150368642A1, “LNA OLIGONUCLEOTIDE CARBOHYDRATE CONJUGATES” (HOFFMANN-LA ROCHE INC., priority 2013, published 2015).
Strand notation (5' to 3'): a small letter for the sugar, then the base; units joined by * are phosphorothioate-linked, units joined directly phosphodiester-linked; [ ] holds rarer units or linkages, { } end groups; capitals alone tell only the bases. {Conj1a} = GalNAc carbohydrate conjugate Conj1a; l = locked nucleic acid (LNA); [5mC] = 5-methylcytosine; d = 2'-deoxy (DNA)

How the values were obtained:
ApoB = test: Non-human primate study, serum ApoB and LDL-C (ApoB conjugates); type: in vivo, cynomolgus monkeys; conditions: Example 7; single i.v. dose; FIG. 16
Procedure: The primary objective for this study is to investigate selected lipid markers over 7 weeks after a single slow bolus injection of anti-PCSK9 and anti-ApoB LNA conjugated to GalNac cluster (Conj2a) to cynomolgus monkeys and assess the potential toxicity of compounds in monkey. The compounds which were prepared in sterile saline (0.9%) at an initial concentration of 0.625 and 2.5 mg/ml).
Male (PCSK9) or female monkeys (ApoB) monkeys of at least 24 months old are used, and given free access to tap water and 180 g of MWM(E) SQC SHORT expanded diet (Dietex France, SDS, Saint Gratien, France) will be distributed daily per animal. The total quantity of food distributed in each cage will be calculated according to the number of animals in the cage on that day. In addition, fruit or vegetables will be given daily to each animal. The animals will be acclimated to the study conditions for a period of at least 14 days before the beginning of the treatment period. During this period, pre-treatment investigations will be performed. The animals are dosed i.v. at a dose if, for example, 0.25 mg/kg or 1 mg/kg. The dose volume will be 0.4 mL/kg. 2 animals are used per group. After three weeks, the data will be analyzed and a second group of animals using a higher or lower dosing regimen may be initiated—preliminary dose setting is 0.5 mg/kg and 1 mg/kg, or lower than that based on the first data set.
The dose formulations will be administered once on Day 1. Animals will be observed for a period of 7 weeks following treatment, and will be released from the study on Day 51. Day 1 corresponds to the first day of the treatment period. Clinical observations and body weight and food intake (per group) will be recorded prior to and during the study.
The following parameters will be determined for all surviving animals at the occasions indicated below: • full biochemistry panel (complete list below)—on Days −8, 15 and 50, • liver Safety (ASAT, ALP, ALAT, TBIL and GGT only)—on Days 4, 8, 22 and 36, • lipid profile (Total cholesterol, HDL-C, LDL-C and Triglycerides) and Apo-B only—on Days −1, 4, 8, 22, 29, 36, and 43.
Blood (approximately 1.0 mL) is taken into lithium heparin tubes (using the ADVIA 1650 blood biochemistry analyzer): Apo-B, sodium, potassium, chloride, calcium, inorganic phosphorus, glucose, HDL-C, LDL-C, urea, creatinine, total bilirubin (TBIL), total cholesterol, triglycerides, alkaline phosphatase (ALP), alanine aminotransferase (ALAT), aspartate aminotransferase (ASAT), creatine kinase, gamma-glutamyl transferase (GGT), lactate dehydrogenase, total protein, albumin, albumin/globulin ratio.
Other Analysis: WO2011009697 & WO2010142805 provides the methods for the following analysis: qPCR, PCSK9/ApoB mRNA analysis, Other analysis includes PCSK9/ApoB protein ELISA, serum Lp(a) analysis with ELISA (Mercodia No. 10-1106-01), tissue and plasma oligonucleotide analysis (drug content), Extraction of samples, standard- and QC-samples, Oligonucleotide content determination by ELISA. […] There was no indication of hepatotoxicity or nephrotoxicity with the ApoB targeting compounds.

HBV = HBV mouse hydrodynamic tailvein injection model, HBV DNA in liver by qPCR; type: in vivo, Balb/C mouse
Excerpt: An LNA oligomer can be assessed for antiviral effect in vivo in a mouse strain, such as BALB/c or C57B/6, where HBV replication can be established by hydrodynamic tail vein injection of a plasmid, such as pAAV/HBV1.3, expressing a partially repeated HBV pregenomic RNA (J Virol. 1995 October; 69(10):6158-69) or pAAV2/HBV1.3, a derivative thereof (WuxiAppTech, Wuxi, China). The injection of the plasmid in a high volume of saline, equal to 8-12% of the body mass of the mouse, will result in the accumulation and expression of the viral pregenomic RNA in the liver, subsequently leading to the establishment of an acute HBV infection. Treatment of the animals with an LNA oligomer can be initiated 1 or more days before the injection of the plasmid or 1 day after the injection of the plasmid. Delivery of the LNA oligomer in saline can be done by intravenous or subcutaneous injection.
An in vivo experiment was performed on SEQ ID 55 and SEQ ID 56, the latter being a GalNAC conjugate of the former (conj1a). The LNA compounds were tested for efficacy against HBV in the mouse hydrodynamic tailvein injection model using the Balb/C mouse strain. LNA compounds were be tested at equimolar doses; 2 and 10 mg/kg, single injection (SEQ ID 55) and at 2.7 and 13.5 mg/kg, single injection (SEQ ID 56). The LNA anti-HBV compounds were compared to saline and to entecavir, an inhibitor of the HBV reverse transcriptase. Entecavir was dosed p.o. daily at 0.1 mg/kg. Where applicable, the animals were treated with the LNA compound 24 hours before the hydrodynamic injection. Entecavir was given in daily doses as described starting 24 hours after the hydrodynamic injection. […] All the animals were monitored on a daily basis for body weight changes and clinical signs for the duration of the in vivo study. […] All the blood samples were collected in tubes containing heparin sodium The portion of the left lobe of each liver was used to determine the level of HBV DNA replication by qPCR, as copies per unit weight of liver in which the quantity of total HBV DNA level is subtracted by the quantity of pAAV2/HBV DNA level. […]

ApoB mRNA = test: In vivo silencing of ApoB mRNA with monoGalNAc conjugates (branched DNA assay); conditions: Example 4; C57BL6 mice, single 1 mg/kg i.v., day 7; compared to unconjugated #12; FIG. 7a
Excerpt: Capital letters are LNA nucleosides (such as beta-D-oxy LNA), lower case letters are a DNA nucleoside. Subscript s represents a phosphorothioate internucleoside linkage (region A). LNA cytosines are optionally 5-methyl cytosine. The 2PO linker (region B) is 5′ to the sequence region A, and comprises of two DNA nucleosides linked by phosphodiester linkage, with the internucleoside linkage between the 3′ DNA nucleoside of region A and the 5′ LNA nucleoside of region A also being phosphodiester. A linkage group (Y) may be used to link the conjugate group, when present, to region B, or A (SEQ ID NO 8 and 11). To compare the monoGalNAc conjugates with different linkers and the GalNAc cluster C57BL6 mice were treated i.v. with saline control or with a single dose of 1 mg/kg of ASO conjugated to Mono-GalNAc either without biocleavable linker, with Dithio-linker (SS) or with DNA/PO-linker (PO) (FIG. 7a) or with 0.25 mg/kg of ASO conjugated to Mono-GalNAc or GalNAc cluster (FIG. 7b). After 7 days the animals were sacrificed and RNA was isolated from liver and kidney samples and analysed for ApoB mRNA expression.
C57BL6 mice were dosed i.v. with a single dose of 1 mg/kg or 0.25 mg/kg ASO formulated in saline or saline alone according to the above table. […] Total RNA was extracted from liver and kidney samples and ApoB mRNA levels were analysed using a branched DNA assay.

Substance	pharmacology (serum ApoB and LDL-C) (ApoB)	ApoB mRNA knock down, activity in the liver (ApoB mRNA)	also measured
SEQ ID NO 32: GsTstsgsascsascstsgsTsC, 2PO-DNA (5′ca3′), cholesterol; ApoB (CAGTTGACACTGTC; listed as DNA, chemistry not fully specified)	effective	–	–
SEQ ID NO 17: GsTstsgsascsascstsgsTsC, GalNAc cluster Conj2a; ApoB (GTTGACACTGTC; listed as DNA, chemistry not fully specified)	effective	–	potency compared to the cholesterol conjugated compound (ApoB): considerably more potent than the cholesterol conjugated compound
SEQ ID NO 56: 5′-GsAsGsGscsastsasgscsasgs^mCsAsGsG-3′ with a 5′ GalNac(Conj1a) ({Conj1a}-lG*lA*lG*lG*dC*dA*dT*dA*dG*dC*dA*dG*l[5mC]*lA*lG*lG)	–	–	reduction in viral titer in the liver (HBV; 8 days after delivery of a single dose and 7 days after the initiation of the infection): 90%; effect on replication of HBV / HBV DNA level in the liver (HBV; Balb/C mice, single injection 24 hours before hydrodynamic injection, SEQ ID 55 2 and 10 mg/kg, SEQ ID 56 2.7 and 13.5 mg/kg): excellent dose-dependent antiviral effect
SEQ ID NO 10: GsCsaststsgsgstsastsTsCsA, 2PO-DNA (5′ca3′), monoGalNAc; ApoB (CAGCATTGGTATTCA; listed as DNA, chemistry not fully specified)	–	clearly improved activity in the liver	–
SEQ ID NO 8: GsCsaststsgsgstsastsTsCsA, no cleavable linker, monoGalNAc; ApoB (GCATTGGTATTCA; sugars from the 5' end l2 d8 l3, all phosphorothioate, methylation of C not given here; monoGalNAc conjugated without cleavable linker)	–	clearly improved activity in the liver	–
SEQ ID NO 14: GsCsaststsgsgstsastsTsCsA, 2PO-DNA (5′ca3′), cholesterol; ApoB (CAGCATTGGTATTCA; chemistry not fully specified)	did not exhibit significant pharmacology	–	–
